From the NIST ThermoML archive (doi:10.1016/j.fluid.2017.04.016)

Assay: mean ionic activity coefficient (dimensionless); mn = molality of the nth substance listed, in mol/kg
Conditions: 101 kPa, Liquid, galvanic cell

[Br-].[Na+] [sodium bromide] + O
mean ionic activity coefficient
Conditions | 298.2 K | 310.2 K
m1 = 0.01 | 0.875 | –
m1 = 0.0508 | 0.835 | 0.714
m1 = 0.1 | – | 0.631
m1 = 0.1009 | 0.777 | –
m1 = 0.25 | – | 0.669
m1 = 0.2509 | 0.799 | –
m1 = 0.5004 | 0.699 | –
m1 = 0.5731 | – | 0.579
m1 = 0.75 | 0.637 | –
m1 = 0.7503 | – | 0.559
m1 = 1 | 0.612 | 0.547
m1 = 1.25 | 0.587 | 0.553
m1 = 1.5 | 0.57 | 0.576
m1 = 1.75 | 0.575 | 0.61
m1 = 2 | 0.642 | 0.635
m1 = 2.25 | 0.633 | 0.643
m1 = 2.5 | 0.644 | 0.646
m1 = 2.75 | 0.584 | 0.711
m1 = 3 | 0.616 | 0.846
